Assay results taken from ChEMBL document CHEMBL4814006, “Novel amino substituted tetracyclic imidazo[4,5-b]pyridine derivatives: Design, synthesis, antiproliferative activity and DNA/RNA binding study” (Eur J Med Chem, 2021).
The source made the active and inactive calls. The calls are words filed in the database; no cut-off is given here.

Columns and labels:
Calf thymus DNA [1] = assay: Binding affinity to calf thymus DNA assessed as binding constant in sodium cacodylate buffer at pH 7 by fluorescence spectroscopy; conditions: Bos taurus
HCT-116 = assay: Antiproliferative activity against human HCT-116 cells assessed as inhibition of cell growth incubated for 72 hrs by MTT assay; assay type: functional, cell-based; conditions: HCT-116, 72 h
Calf thymus DNA [2] = assay: Binding affinity to calf thymus DNA assessed as ratio of bound compound to polynucleotide phosphate in sodium cacodylate buffer at pH 7 by fluorescence spectroscopy based Scatchard analysis; conditions: Bos taurus
[3] = tested on: Poly(dG-dC)oligonucleotide; assay: Binding affinity to poly(dGdC)2 DNA (unknown origin) assessed as ratio of fluorescence intensity of compound-polynucleotide complex to fluorescence intensity of compound in sodium cacodylate buffer at pH 7 by fluorescence spectroscopy based Scatchard method; assay type: nucleic-acid assay
Quadruplex DNA [4] = assay: Binding affinity to human Tel22 G quadruplex DNA assessed as ratio of fluorescence intensity of compound-polynucleotide complex to fluorescence intensity of compound in sodium cacodylate buffer at pH 7 at binding stoichiometry ratio of 1:2 by fluorescence spectroscopy; assay type: nucleic-acid assay
MCF7 = assay: Antiproliferative activity against human MCF7 cells assessed as inhibition of cell growth incubated for 72 hrs by MTT assay; assay type: functional, cell-based; conditions: MCF7, 72 h
[5] = tested on: Poly(dA-dU)oligonucleotide; assay: Binding affinity to polyA-polyU RNA (unknown origin) assessed as change in melting temperature in sodium cacodylate buffer at pH 7 at compound:polynucleotide concentration ratio of 0.3 by UV/vis spectrophotometric analysis; assay type: nucleic-acid assay
HEK293 = assay: Cytotoxicity against human HEK293 cells assessed as inhibition of cell growth incubated for 72 hrs by MTT assay; assay type: cell-based; conditions: HEK293, 72 h
[6] = tested on: Poly(dA-dT)oligonucleotide; assay: Binding affinity to poly(dAdT)2 DNA (unknown origin) assessed as binding constant in sodium cacodylate buffer at pH 7 by fluorescence spectroscopy; assay type: nucleic-acid assay
NCI-H460 = assay: Antiproliferative activity against human NCI-H460 cells assessed as inhibition of cell growth incubated for 72 hrs by MTT assay; assay type: functional, cell-based; conditions: NCI-H460, 72 h
[7] = tested on: Poly(dA-dU)oligonucleotide; assay: Binding affinity to polyA-polyU RNA (unknown origin) assessed as ratio of fluorescence intensity of compound-polynucleotide complex to fluorescence intensity of compound in sodium cacodylate buffer at pH 7 by fluorescence spectroscopy based Scatchard method; assay type: nucleic-acid assay
[8] = tested on: Poly(dA-dU)oligonucleotide; assay: Binding affinity to polyA-polyU RNA (unknown origin) assessed as ratio of bound compound to polynucleotide phosphate in sodium cacodylate buffer at pH 7 by fluorescence spectroscopy based Scatchard method; assay type: nucleic-acid assay
[9] = tested on: Poly(dG-dC)oligonucleotide; assay: Binding affinity to poly(dGdC)2 DNA (unknown origin) assessed as ratio of bound compound to polynucleotide phosphate in sodium cacodylate buffer at pH 7 by fluorescence spectroscopy based Scatchard method; assay type: nucleic-acid assay
Quadruplex DNA [10] = assay: Binding affinity to human Tel22 G quadruplex DNA assessed as change in melting temperature in sodium cacodylate buffer at pH 7 by UV/Vis spectrophotometric analysis; assay type: nucleic-acid assay
[11] = tested on: Poly(dA-dU)oligonucleotide; assay: Binding affinity to polyA-polyU RNA (unknown origin) in sodium cacodylate buffer at pH 7 by CD spectroscopy; assay type: nucleic-acid assay
Calf thymus DNA [12] = assay: Binding affinity to calf thymus DNA assessed as ratio of fluorescence intensity of compound-polynucleotide complex to fluorescence intensity of compound in sodium cacodylate buffer at pH 7 by fluorescence spectroscopy based Scatchard method; conditions: Bos taurus
Calf thymus DNA [13] = assay: Binding affinity to calf thymus DNA assessed as change in melting temperature in sodium cacodylate buffer at pH 7 at compound:polynucleotide concentration ratio of 0.3 by UV/Vis spectrophotometric analysis; assay type: nucleic-acid assay; conditions: Bos taurus
[14] = tested on: Poly(dA-dT)oligonucleotide; assay: Binding affinity to poly(dAdT)2 DNA (unknown origin) assessed as change in melting temperature in sodium cacodylate buffer at pH 7 at compound:polynucleotide concentration ratio of 0.3 by UV/Vis spectrophotometric analysis; assay type: nucleic-acid assay
Quadruplex DNA [15] = assay: Binding affinity to human Tel22 G quadruplex DNA assessed as binding constant in sodium cacodylate buffer at pH 7 at binding stoichiometry ratio of 1:1 by fluorescence spectroscopy; assay type: nucleic-acid assay
[16] = tested on: Poly(dA-dT)oligonucleotide; assay: Binding affinity to poly(dAdT)2 DNA (unknown origin) assessed as ratio of bound compound to polynucleotide phosphate in sodium cacodylate buffer at pH 7 by fluorescence spectroscopy based Scatchard method; assay type: nucleic-acid assay
Quadruplex DNA [17] = assay: Binding affinity to human Tel22 G quadruplex DNA assessed as ratio of fluorescence intensity of compound-polynucleotide complex to fluorescence intensity of compound in sodium cacodylate buffer at pH 7 at binding stoichiometry ratio of 1:1 by fluorescence spectroscopy; assay type: nucleic-acid assay
[18] = tested on: Poly(dA-dT)oligonucleotide; assay: Binding affinity to poly(dAdT)2 DNA (unknown origin) assessed as ratio of fluorescence intensity of compound-polynucleotide complex to fluorescence intensity of compound in sodium cacodylate buffer at pH 7 by fluorescence spectroscopy based Scatchard method; assay type: nucleic-acid assay
[19] = tested on: Poly(dA-dU)oligonucleotide; assay: Binding affinity to polyA-polyU RNA (unknown origin) assessed as binding constant in sodium cacodylate buffer at pH 7 by fluorescence spectroscopy; assay type: nucleic-acid assay
Quadruplex DNA [20] = assay: Binding affinity to human Tel22 G quadruplex DNA assessed as binding constant in sodium cacodylate buffer at pH 7 at binding stoichiometry ratio of 1:2 by fluorescence spectroscopy; assay type: nucleic-acid assay
[21] = tested on: Poly(dG-dC)oligonucleotide; assay: Binding affinity to poly(dGdC)2 DNA (unknown origin) assessed as binding constant in sodium cacodylate buffer at pH 7 by fluorescence spectroscopy; assay type: nucleic-acid assay
[22] = tested on: Poly(dG-dC)oligonucleotide; assay: Binding affinity to poly(dGdC)2 DNA (unknown origin) in sodium cacodylate buffer at pH 7 by CD spectroscopy; assay type: nucleic-acid assay
[23] = tested on: Poly(dA-dT)oligonucleotide; assay: Binding affinity to poly(dAdT)2 DNA (unknown origin) in sodium cacodylate buffer at pH 7 by CD spectroscopy; assay type: nucleic-acid assay
Quadruplex DNA [24] = assay: Binding affinity to human Tel22 G quadruplex DNA in sodium cacodylate buffer at pH 7 by CD spectroscopy; assay type: nucleic-acid assay

SMILES: N#Cc1c(N2CCNCC2)c2ccc(N3CCNCC3)cc2n2c1nc1ncccc12
- log Ks (Calf thymus DNA [1]): 6.4
- IC50 (HCT-116): ≥ 100 µM
- Ratio (Calf thymus DNA [2]): 0.1
- Ratio [3]: 0
- Ratio (Quadruplex DNA [4]): 0.89
- IC50 (MCF7): ≥ 100 µM
- ΔTm [5]: 13.5 °C
- IC50 (HEK293): > 100 µM
- log Ks [6]: 6.8
- IC50 (NCI-H460): ≥ 100 µM
- Ratio [7]: 1.8
- Ratio [8]: 0.1
- Ratio [9]: 0.2
- ΔTm (Quadruplex DNA [10]): 2.5 °C
- Activity [11]: Active
- Ratio (Calf thymus DNA [12]): 0
- ΔTm (Calf thymus DNA [13]): 6.6 °C
- ΔTm [14]: 11.1 °C
- log Ks (Quadruplex DNA [15]): 5.33
- Ratio [16]: < 0.1
- Ratio (Quadruplex DNA [17]): 0.62
- Ratio [18]: 1.3
- log Ks [19]: 6.5
- log Ks (Quadruplex DNA [20]): 7.16
- log Ks [21]: 6.6
- Activity [22]: Active
- Activity [23]: Active

SMILES: N#Cc1cc2ccc(N3CCCCC3)cc2n2c1nc1cccnc12
- IC50 (HCT-116): 5.5 µM
- IC50 (MCF7): 3 µM
- IC50 (NCI-H460): ≥ 100 µM

SMILES: N#Cc1cc2ccc(N3CCNCC3)cc2n2c1nc1ncccc12
- IC50 (HCT-116): 0.9 µM
- IC50 (MCF7): 3.1 µM
- IC50 (NCI-H460): 7 µM

SMILES: N#Cc1c(N2CCCCC2)c2ccc(N3CCCCC3)cc2n2c1nc1cccnc12
- IC50 (HCT-116): 1 µM
- IC50 (MCF7): 0.5 µM
- IC50 (HEK293): > 100 µM
- IC50 (NCI-H460): ≥ 100 µM

SMILES: N#Cc1c(N2CCNCC2)c2ccc(N3CCNCC3)cc2n2c1nc1cccnc12
- log Ks (Calf thymus DNA [1]): 6.3
- IC50 (HCT-116): 0.4 µM
- Ratio (Calf thymus DNA [2]): 0.3
- Ratio [3]: < 0.1
- Ratio (Quadruplex DNA [4]): 0.81
- IC50 (MCF7): 0.4 µM
- ΔTm [5]: 15 °C
- IC50 (HEK293): 0.2 µM
- log Ks [6]: 6.8
- IC50 (NCI-H460): 0.7 µM
- Ratio [7]: 2
- Ratio [8]: 0.1
- Ratio [9]: 0.3
- Activity [11]: Active
- Ratio (Calf thymus DNA [12]): 0.1
- ΔTm (Calf thymus DNA [13]): 7.5 °C
- ΔTm [14]: 14.3 °C
- log Ks (Quadruplex DNA [15]): 5.04
- Ratio [16]: 0.2
- Ratio (Quadruplex DNA [17]): 0.77
- Ratio [18]: 1.5
- log Ks [19]: 6.6
- log Ks (Quadruplex DNA [20]): 6.85
- log Ks [21]: 6.8
- Activity [22]: Active
- Activity [23]: Active

SMILES: N#Cc1c(Cl)c2ccc(F)cc2n2c1nc1cccnc12
- IC50 (HCT-116): 3 µM
- IC50 (MCF7): 2 µM
- IC50 (NCI-H460): ≥ 100 µM

SMILES: CC(C)CNc1ccc2cc(C#N)c3nc4cccnc4n3c2c1
- IC50 (HCT-116): 0.5 µM
- IC50 (MCF7): 0.4 µM
- IC50 (HEK293): 0.5 µM
- IC50 (NCI-H460): 0.3 µM

SMILES: N#Cc1cc2ccc(N3CCCCC3)cc2n2c1nc1ncccc12
- IC50 (HCT-116): 10 µM
- IC50 (MCF7): 5 µM
- IC50 (NCI-H460): 49 µM

SMILES: CC(C)CNc1ccc2c(NCC(C)C)c(C#N)c3nc4ncccc4n3c2c1
- IC50 (HCT-116): 3.7 µM
- IC50 (MCF7): 2 µM
- Activity (Quadruplex DNA [24]): Active
- IC50 (NCI-H460): 7.6 µM

SMILES: N#Cc1c(N2CCCCC2)c2ccccc2n2c1nc1cccnc12
- IC50 (HCT-116): 47 µM
- IC50 (MCF7): 16 µM
- IC50 (NCI-H460): ≥ 100 µM

SMILES: CN(C)CCCNc1ccc2cc(C#N)c3nc4ncccc4n3c2c1
- log Ks (Calf thymus DNA [1]): 6
- IC50 (HCT-116): 2.3 µM
- Ratio (Calf thymus DNA [2]): 0.4
- Ratio [3]: 0.4
- IC50 (MCF7): 12 µM
- Activity (Quadruplex DNA [24]): Active
- ΔTm [5]: 4.5 °C
- IC50 (HEK293): 4 µM
- log Ks [6]: 6.4
- IC50 (NCI-H460): 11 µM
- Ratio [7]: 0.8
- Ratio [8]: 0.4
- Ratio [9]: 0.4
- ΔTm (Quadruplex DNA [10]): 2 °C
- Activity [11]: Active
- Ratio (Calf thymus DNA [12]): 0.5
- ΔTm (Calf thymus DNA [13]): 4.2 °C
- ΔTm [14]: 9.9 °C
- log Ks (Quadruplex DNA [15]): 5.35
- Ratio [16]: 0.4
- Ratio (Quadruplex DNA [17]): 0.66
- Ratio [18]: 0.8
- log Ks [19]: 5.5
- log Ks [21]: 5.6
- Activity [22]: Active
- Activity [23]: Active

SMILES: N#Cc1c(N2CCNCC2)c2ccccc2n2c1nc1ncccc12
- IC50 (HCT-116): 3.5 µM
- IC50 (MCF7): 3 µM
- IC50 (NCI-H460): 7 µM

SMILES: N#Cc1cc2ccc(F)cc2n2c1nc1ncccc12
- IC50 (HCT-116): ≥ 100 µM
- IC50 (MCF7): ≥ 100 µM
- IC50 (NCI-H460): ≥ 100 µM
